In patent US9980943B2, “Methods of treating muscular dystrophy” (BOARD OF REGENTS OF THE NEVADA SYSTEM OF HIGHER EDUCATION, …, priority 2013, dated 2018):

Experiments:
Type in all cases: cell-based, mouse
[1] = system: β-galactosidase in CMV-LacZ C2C12 myotubes; assay: CMV-LacZ secondary screen in C2C12 myotubes (β-Gal stabilizing assay); settings: for CMV-LACZ in Myotubes (β-galactosidase activity relative to DMSO): CMV-LacZ C2C12 myotubes, 96-well format; for CMV-LACZ in Myotubes, signal relative to DMSO: C2C12 CMV-LacZ myotubes, fold relative to DMSO
Summary of the method: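 β-gal stabilization was measured in C2C12 myoblasts or myotubes stably transfected with a CMV-driven LacZ construct, using the FDG β-gal assay. Compounds were tested in dose-response at 0.5, 1, 5, 10, 20 and 40 μM, with two replicates per point.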

[2] = system: α7 integrin (LacZ reporter in α7+/LacZ myotubes); assay: Myotube α7 integrin FDG assay (Burkin assay in myotubes, 96-well); settings: myotubes
[3] = system: α7 integrin (LacZ reporter in α7βgal+/− myoblasts); assay: Myoblast α7+/LacZ integrin FDG assay (Burkin assay in myoblasts, 96-well); settings: α7+/LacZ myoblasts, 96-well

SMILES | CMV-LACZ in Myotubes (β-galactosidase activity relative to DMSO) ([1]; 5 uM) | CMV-LACZ in Myotubes (β-galactosidase activity relative to DMSO) ([1]; 10 uM) | CMV-LACZ in Myotubes (β-galactosidase activity relative to DMSO) ([1]; 20 uM) | CMV-LACZ in Myotubes (β-galactosidase activity relative to DMSO) ([1]; 40 uM) | Burkin Assay in Myotubes (signal relative to DMSO) ([2]; 0.5 uM) | Burkin Assay in Myotubes (signal relative to DMSO) ([2]; 1 uM) | Burkin Assay in Myotubes (signal relative to DMSO) ([2]; 5 uM) | Burkin Assay in Myotubes (signal relative to DMSO) ([2]; 10 uM) | Burkin Assay in Myotubes (signal relative to DMSO) ([2]; 20 uM) | Burkin Assay in Myotubes (signal relative to DMSO) ([2]; 40 uM) | Burkin Assay in Myoblasts, value relative to DMSO ([3]; 0.5 uM) | Burkin Assay in Myoblasts, value relative to DMSO ([3]; 1 uM) | Burkin Assay in Myoblasts, value relative to DMSO ([3]; 5 uM) | Burkin Assay in Myoblasts, value relative to DMSO ([3]; 10 uM) | Burkin Assay in Myoblasts, value relative to DMSO ([3]; 20 uM) | Burkin Assay in Myoblasts, value relative to DMSO ([3]; 40 uM) | CMV-LACZ in Myotubes, signal relative to DMSO ([1]; 5 uM) | CMV-LACZ in Myotubes, signal relative to DMSO ([1]; 10 uM) | CMV-LACZ in Myotubes, signal relative to DMSO ([1]; 20 uM) | CMV-LACZ in Myotubes, signal relative to DMSO ([1]; 40 uM)
NC(=O)c1nsc(C(=O)N(c2ccccc2)C(C(=O)NCc2ccc(F)cc2)c2ccc(O)cc2)c1N (stereo not shown) [MLS001219621-01] | 0.9491 | 1.063 | 1.132 | 1.29 | 0.9394 | 0.8603 | 0.8883 | 0.8616 | 0.648 | 0.4537 | 0.8642 | 0.8063 | 0.7249 | 0.7542 | 0.7884 | 0.5423 | – | – | – | –
COc1ccccc1N(C(=O)CNC(=O)c1ccco1)C(C(=O)NC1CCCCC1)c1ccncc1 (stereo not shown) [MLS001220669-01] | – | – | – | – | 0.9722 | 0.978 | 1.0117 | 1.038 | 1.003 | 1.011 | 1 | 0.9426 | 0.9016 | 0.9605 | 0.8701 | 0.7613 | 0.8274 | 0.7701 | 1.0114 | 1
Cc1cc(NC(=O)CCC(=O)N(Cc2cccnc2)C(C(=O)NC(C)(C)C)c2ccccc2Cl)no1 (stereo not shown) [MLS001220803-01] | 1.115 | 1.064 | 1.091 | 1.05 | 0.9345 | 0.9703 | 1.18 | 1.075 | 1.0147 | 0.9622 | 0.9688 | 1.0343 | 0.8878 | 0.9511 | 0.9503 | 0.9906 | – | – | – | –
COc1ccc(N2CCCC2)c(NC(=O)c2ccc([N+](=O)[O-])o2)c1 [MLS001221619-01] | 1.172 | 1.321 | 1.513 | 1.781 | 0.826 | 0.9557 | 0.944 | 1.012 | 0.8603 | 1.034 | 0.6855 | 0.7633 | 0.7367 | 0.6764 | 0.9648 | 0.8976 | – | – | – | –
